Like-named read-outs stand apart in the source and are kept apart here. Blank lines part the entries; values can stand above or below the compound they belong to.
Legend:
Type in all cases: cell-based
BaF3_HER2YVMA cells = assay: Cell growth inhibition assay, BaF3_HER2YVMA; details: BaF3_HER2YVMA cells, 3 days treatment, CellTiterGlo 2.0, read-out: HER2-YVMA IC50 (nM), cell growth inhibition
BaF3_HER2WT cells = assay: Cell growth inhibition assay, BaF3_HER2WT; details: 3 days treatment, CellTiterGlo 2.0, read-out: HER2 WT IC50 (nM), cell growth inhibition
BaF3_EGFRWT cells = assay: Cell growth inhibition assay, BaF3_EGFRWT; details: 80 ng/mL recombinant human EGF, 3 days treatment, CellTiterGlo 2.0, read-out: EGFR WT IC50 (nM), cell growth inhibition

Compound: Cc1cc(Nc2ncnn3ccc(C4CCN(C(=O)C(F)Cl)CC4)c23)ccc1Oc1ccn2ncnc2c1 (stereo not drawn) [Example 35, 1-(4-(4-((4-([1,2,4]triazolo[1,5-a]pyridin-7-yloxy)-3-methylphenyl)amino)pyrrolo[2,1-f][1,2,4]triazin-5-yl)piperidin-1-yl)-2-chloro-2-fluoroethan-1-one acetate]
IC50 (BaF3_HER2YVMA cells; 72 h): < 200 nM
IC50 (BaF3_HER2WT cells; 72 h): < 200 nM
IC50 (BaF3_EGFRWT cells; 72 h): 1500 to 5000 nM

Compound: Cc1cc(Nc2ncnn3ccc(C4=CCN(C(=O)/C=C/CN(C)C)CC4)c23)ccc1Oc1ccn2ncnc2c1 [Example 53, (E)-1-(4-(4-((4-([1,2,4]triazolo[1,5-a]pyridin-7-yloxy)-3-methylphenyl)amino)pyrrolo[2,1-f][1,2,4]triazin-5-yl)-3,6-dihydropyridin-1(2H)-yl)-4-(dimethylamino)but-2-en-1-one]
IC50 (BaF3_HER2YVMA cells; 72 h): < 200 nM
IC50 (BaF3_HER2WT cells; 72 h): < 200 nM
IC50 (BaF3_EGFRWT cells; 72 h): 1500 to 5000 nM

Compound: Cc1cc(Nc2ncnn3ccc(C4CC5CCC(C4)N5C(=O)/C=C/CN(C)C)c23)ccc1Oc1ccn2ncnc2c1 (single isomer, unassigned) [Examples 122 and 123, second eluting isomer, (E)-1-(3-(4-((4-([1,2,4]triazolo[1,5-a]pyridin-7-yloxy)-3-methylphenyl)amino)pyrrolo[2,1-f][1,2,4]triazin-5-yl)-8-azabicyclo[3.2.1]octan-8-yl)-4-(dimethylamino)but-2-en-1-one]
IC50 (BaF3_HER2YVMA cells): 200 to 500 nM
IC50 (BaF3_HER2WT cells): < 200 nM
IC50 (BaF3_EGFRWT cells): 1500 to 5000 nM

Compound: Cc1cc(Nc2ncnn3ccc(C4CCN(C(=O)/C=C/CN5CC(F)C5)CC4)c23)ccc1Oc1ccc2c(c1)ncn2C [Example 162, (E)-4-(3-fluoroazetidin-1-yl)-1-(4-(4-((3-methyl-4-((1-methyl-1H-benzo[d]imidazol-5-yl)oxy)phenyl)amino)pyrrolo[2,1-f][1,2,4]triazin-5-yl)piperidin-1-yl)but-2-en-1-one]
IC50 (BaF3_HER2YVMA cells; 72 h): 500 to 1500 nM
IC50 (BaF3_HER2WT cells; 72 h): 200 to 500 nM
IC50 (BaF3_EGFRWT cells; 72 h): 1500 to 5000 nM

Compound: COC1CCN(C/C=C/C(=O)N2CC(c3ccn4ncnc(Nc5ccc(Oc6ccn7ncnc7c6)c(C)c5)c34)C2)CC1 [Example 42, (E)-1-(3-(4-((4-([1,2,4]triazolo[1,5-a]pyridin-7-yloxy)-3-methylphenyl)amino)pyrrolo[2,1-f][1,2,4]triazin-5-yl)azetidin-1-yl)-4-(4-methoxypiperidin-1-yl)but-2-en-1-one]
IC50 (BaF3_HER2YVMA cells; 72 h): < 200 nM
IC50 (BaF3_HER2WT cells; 72 h): < 200 nM
IC50 (BaF3_EGFRWT cells; 72 h): 1500 to 5000 nM

Compound: Cc1cc(Nc2ncnn3ccc(C4CN(C(=O)/C=C/CN5CC(F)C5)C4)c23)ccc1Oc1ccn2ncnc2c1 [Example 38, (E)-1-(3-(4-((4-([1,2,4]triazolo[1,5-a]pyridin-7-yloxy)-3-methylphenyl)amino)pyrrolo[2,1-f][1,2,4]triazin-5-yl)azetidin-1-yl)-4-(3-fluoroazetidin-1-yl)but-2-en-1-one]
IC50 (BaF3_HER2YVMA cells; 72 h): < 200 nM
IC50 (BaF3_HER2WT cells; 72 h): < 200 nM
IC50 (BaF3_EGFRWT cells; 72 h): 1500 to 5000 nM

Compound: CO[C@H]1CN(C/C=C/C(=O)N2CCC(c3ccn4ncnc(Nc5ccc(Oc6ccc7c(c6)ncn7C)c(C)c5)c34)CC2)C[C@H]1OC [Example 167, (E)-4-((3R,4S)-3,4-dimethoxypyrrolidin-1-yl)-1-(4-(4-((3-methyl-4-((1-methyl-1H-benzo[d]imidazol-5-yl)oxy)phenyl)amino)pyrrolo[2,1-f][1,2,4]triazin-5-yl)piperidin-1-yl)but-2-en-1-one]
IC50 (BaF3_HER2YVMA cells; 72 h): < 200 nM
IC50 (BaF3_HER2WT cells; 72 h): < 200 nM
IC50 (BaF3_EGFRWT cells; 72 h): 1500 to 5000 nM

Compound: COC1CN(C/C=C/C(=O)N2CC(c3ccn4ncnc(Nc5ccc(Oc6ccn7ncnc7c6)c(C)c5)c34)C2)C1 [Example 39, (E)-1-(3-(4-((4-([1,2,4]triazolo[1,5-a]pyridin-7-yloxy)-3-methylphenyl)amino)pyrrolo[2,1-f][1,2,4]triazin-5-yl)azetidin-1-yl)-4-(3-methoxyazetidin-1-yl)but-2-en-1-one]
IC50 (BaF3_HER2WT cells; 72 h): < 200 nM
IC50 (BaF3_EGFRWT cells; 72 h): 1500 to 5000 nM

Second part, the compound after the results:

IC50 (BaF3_HER2YVMA cells; 72 h): < 200 nM
IC50 (BaF3_HER2WT cells; 72 h): < 200 nM
IC50 (BaF3_EGFRWT cells; 72 h): 1500 to 5000 nM
Compound: Cc1cc(Nc2ncnn3ccc(C4CCN(C(=O)/C=C/[C@H]5CCCN5C)CC4)c23)ccc1Oc1ccn2ncnc2c1 [Example 25, (R,E)-1-(4-(4-((4-([1,2,4]triazolo[1,5-a]pyridin-7-yloxy)-3-methylphenyl)amino)pyrrolo[2,1-][1,2,4]triazin-5-yl)piperidin-1-yl)-3-(1-methylpyrrolidin-2-yl)prop-2-en-1-one]

IC50 (BaF3_HER2YVMA cells; 72 h): < 200 nM
IC50 (BaF3_HER2WT cells; 72 h): < 200 nM
IC50 (BaF3_EGFRWT cells; 72 h): 1500 to 5000 nM
Compound: COC1CN(C/C=C/C(=O)N2CCC(c3ccn4ncnc(Nc5ccc(Oc6ccn7ncnc7c6)c(C)c5)c34)CC2)C1 [Example 117, (E)-1-(4-(4-((4-([1,2,4]triazolo[1,5-a]-207-midazol-7-yloxy)-3-methylphenyl)amino)pyrrolo[2,1-f][1,2,4]triazin-5-yl)piperidin-1-yl)-4-(3-methoxyazetidin-1-yl)but-2-en-1-one]

IC50 (BaF3_HER2YVMA cells; 72 h): 1500 to 5000 nM
IC50 (BaF3_HER2WT cells; 72 h): 1500 to 5000 nM
IC50 (BaF3_EGFRWT cells; 72 h): 1500 to 5000 nM
Compound: C=C(C(=O)O)C(=O)N1CCC(c2ccn3ncnc(Nc4ccc(Oc5ccn6ncnc6c5)c(C)c4)c23)CC1 [Example 20, 2-(4-(4-((4-([1,2,4]triazolo[1,5-a]pyridin-7-yloxy)-3-methylphenyl)amino)pyrrolo[2,1-f][1,2,4]triazin-5-yl)piperidine-1-carbonyl)acrylic acid]

IC50 (BaF3_HER2YVMA cells; 72 h): < 200 nM
IC50 (BaF3_HER2WT cells; 72 h): < 200 nM
IC50 (BaF3_EGFRWT cells; 72 h): 1500 to 5000 nM
Compound: Cc1cc(Nc2ncnn3ccc(C4CCN(C(=O)/C=C/CN5CC(F)C5)CC4)c23)ccc1Oc1ccn2ncnc2c1 [Example 163]

IC50 (BaF3_HER2YVMA cells; 72 h): < 200 nM
IC50 (BaF3_HER2WT cells; 72 h): < 200 nM
IC50 (BaF3_EGFRWT cells): 1500 to 5000 nM
Compound: C=C(CN(C)C)C(=O)N1CC2CCC1CC2c1ccn2ncnc(Nc3ccc(Oc4ccn5ncnc5c4)c(C)c3)c12 (single isomer, unassigned) [Examples 135 and 136, first eluting isomer, 1-(5-(4-((4-([1,2,4]triazolo[1,5-a]pyridin-7-yloxy)-3-methylphenyl)amino)pyrrolo[2,1-f][1,2,4]triazin-5-yl)-2-azabicyclo[2.2.2]octan-2-yl)-2-((dimethylamino)methyl)prop-2-en-1-one]

IC50 (BaF3_HER2YVMA cells; 72 h): < 200 nM
IC50 (BaF3_HER2WT cells; 72 h): < 200 nM
IC50 (BaF3_EGFRWT cells; 72 h): 200 to 500 nM
Compound: Cc1cc(Nc2ncnn3ccc(C4CCN(C(=O)C#CCN(C)C)CC4)c23)ccc1Oc1ccn2ncnc2c1 [Example 64, 1-(4-(4-((4-([1,2,4]triazolo[1,5-a]pyridin-7-yloxy)-3-methylphenyl)amino)pyrrolo[2,1-f][1,2,4]triazin-5-yl)piperidin-1-yl)-4-(dimethylamino)but-2-yn-1-one]

IC50 (BaF3_HER2YVMA cells; 72 h): 200 to 500 nM
IC50 (BaF3_HER2WT cells; 72 h): < 200 nM
IC50 (BaF3_EGFRWT cells; 72 h): 1500 to 5000 nM
Compound: C=CC(=O)N(C)C1CCCN(c2ccn3ncnc(Nc4ccc(Oc5ccn6ncnc6c5)c(C)c4)c23)C1 (stereo not drawn) [Example 69, N-(1-(4-((4-([1,2,4]triazolo[1,5-a]pyridin-7-yloxy)-3-methylphenyl)amino)pyrrolo[2,1-f][1,2,4]triazin-5-yl)piperidin-3-yl)-N-methylacrylamide]

IC50 (BaF3_HER2YVMA cells; 72 h): < 200 nM
IC50 (BaF3_HER2WT cells; 72 h): < 200 nM
IC50 (BaF3_EGFRWT cells; 72 h): 1500 to 5000 nM
Compound: Cc1cc(Nc2ncnn3ccc(C4CCN(C(=O)/C=C/CO)CC4)c23)ccc1Oc1ccn2ncnc2c1 [Example 154, (E)-1-(4-(4-((4-([1,2,4]triazolo[1,5-a]pyridin-7-yloxy)-3-methylphenyl)amino)pyrrolo[2,1-f][1,2,4]triazin-5-yl)piperidin-1-yl)-4-hydroxybut-2-en-1-one]

IC50 (BaF3_HER2YVMA cells; 72 h): < 200 nM
IC50 (BaF3_HER2WT cells; 72 h): < 200 nM
IC50 (BaF3_EGFRWT cells; 72 h): 1500 to 5000 nM
Compound: Cc1cc(Nc2ncnn3ccc(C4CCN(C(=O)/C=C/CN5CCCCC5)CC4)c23)ccc1Oc1ccn2ncnc2c1 [Example 57, (E)-1-(4-(4-((4-([1,2,4]triazolo[1,5-a]pyridin-7-yloxy)-3-methylphenyl)amino)pyrrolo[2,1-f][1,2,4]triazin-5-yl)piperidin-1-yl)-4-(piperidin-1-yl)but-2-en-1-one]

IC50 (BaF3_HER2YVMA cells; 72 h): 500 to 1500 nM
IC50 (BaF3_HER2WT cells; 72 h): < 200 nM
IC50 (BaF3_EGFRWT cells; 72 h): 1500 to 5000 nM
Compound: C=CC(=O)N(C)C1CCN(c2ccn3ncnc(Nc4ccc(Oc5ccn6ncnc6c5)c(C)c4)c23)CC1 [Example 74, N-(1-(4-((4-([1,2,4]triazolo[1,5-a]pyridin-7-yloxy)-3-methylphenyl)amino)pyrrolo[2,1-f][1,2,4]triazin-5-yl)piperidin-4-yl)-N-methylacrylamide]

IC50 (BaF3_HER2YVMA cells): < 200 nM
IC50 (BaF3_EGFRWT cells): 1500 to 5000 nM
Compound: C=CC(=O)N1CCCC(c2ccn3ncnc(Nc4ccc(Oc5ccn6ncnc6c5)c(C)c4)c23)CC1 (single isomer, unassigned) [Examples 111 and 112, second eluting isomer, 1-(4-(4-((4-([1,2,4]triazolo[1,5-a]pyridin-7-yloxy)-3-methylphenyl)amino)pyrrolo-[2,1-f][1,2,4]triazin-5-yl)azepan-1-yl)prop-2-en-1-one]

IC50 (BaF3_EGFRWT cells): 1500 to 5000 nM
Compound: Cc1cc(Nc2ncnn3ccc(C4CCCN(C(=O)/C=C/CN(C)C)CC4)c23)ccc1Oc1ccn2ncnc2c1 (single isomer, unassigned) [Examples 109 and 110, second eluting isomer, (E)-1-(4-(4-((4-([1,2,4]triazolo[1,5-a]pyridin-7-yloxy)-3-methylphenyl)amino)pyrrolo[2,1-f][1,2,4]triazin-5-yl)azepan-1-yl)-4-(dimethylamino)but-2-en-1-one]

IC50 (BaF3_EGFRWT cells; 72 h): 1500 to 5000 nM
Compound: Cc1cc(Nc2ncnn3ccc(C4CCN(C(=O)/C=C/CN(C)C)CC4)c23)ccc1Oc1ccn2ncnc2c1 [Example 21, (E)-1-(4-(4-((4-([1,2,4]triazolo[1,5-a]pyridin-7-yloxy)-3-methylphenyl)amino)pyrrolo[2,1-f][1,2,4]triazin-5-yl)piperidin-1-yl)-4-(dimethylamino)but-2-en-1-one]

— patent US20250276983A1, “COMPOUNDS AND METHODS FOR MODULATING HER2” (IAMBIC THERAPEUTICS, INC., priority 2022, published 2025)
